Assay results from US11376233B2 (AJOU UNIVERSITY INDUSTRY-ACADEMIC COOPERATION FOUNDATION, priority 2017, dated 2022).

What was measured:
[1] = system: peripheral arterial occlusion; settings: rat, injection of lauric acid; cited from earlier work
[2] = system: platelet aggregation; settings: cited from earlier work
[3] = system: HEI-OC1 cells; assay: Cytotoxicity and apoptosis caused by H2O2, WST-1 analysis; assay type: cell-based; settings: pretreatment 0.1, 1, 10 and 25 μM for 1 hour, then 500 μM H2O2 for 24 hours
Protocol: Auditory cell (HEI-OC1; House-Ear Institute-organ of Corti 1) lines expressing auditory genes were used, and the HEI-OC1 cells were cultured at 33° C. and under 10% CO2 in DMEM medium (Dulbecco's modified Eagle's Medium) containing a high concentration of glutamine, supplemented with 10% fetal bovine serum (FBS) and 25 U/ml of interferon gamma. A noise-induced hearing loss cell line was established through treatment with H2O2 to produce reactive oxygen species (ROS) by oxidative stress during induction of hearing loss by noise.

[4] = system: catalase and SOD2; assay: Tissue immunohistostaining of cochlea (spiral ganglia, auditory hair cells) in noise-induced hearing loss animal model; assay type: in vivo, Balb/c mice; settings: immunohistochemistry, spiral ganglia (apex, middle, base) and auditory hair cells in cochlea; pretreated 50 mg/kg
Protocol: Confocal Laser Scanning Microscopes and immunostaining were performed for the morphological analysis of spiral ganglia and hair cells located in the organ of Corti in the cochlea in noise-induced hearing loss animal model of Example 1. […] The animal tissues were immobilized and embedded with paraffin to obtain tissue sections. Anti-oxidation-related protein antibodies were primarily attached to the tissue sections, fluorescent antibodies were secondarily attached thereto, and immunohistochemistry was performed to analyze the expression behavior of the anti-oxidation-related proteins. The antibodies were subjected to immunohistochemistry with the antioxidant factors, catalase (Abcam, ab1877, Cambridge, UK), SOD2 (Santa Cruz, Calif., USA), and DAPI (Invitrogen, Carlsbad, Calif.).

[5] = system: rat vascular smooth muscles; settings: in vitro; cited from earlier work
[6] = system: catalase and SOD2; assay: Protein expression of antioxidant enzymes by Western blotting in H2O2-treated auditory cells; assay type: cell-based; settings: pre-treated 1, 10, 25 and 50 μM for 1 hour, 250 μM H2O2 for 24 hours
Protocol: (§1) The mRNA expression was determined by quantitative real-time PCR after extraction of total RNA and synthesis of cDNA. Protein expression was observed by extracting total protein with RIPA buffer, separating proteins in the order of size by SDS-PAGE and then attaching catalase (catalase, Abcam, ab1877, Cambridge, UK)) and SOD2 (superoxide dismutase 2, Santa Cruz, Calif., USA) thereto.

[7] = system: arterial thrombosis; settings: mouse vascular endothelial injury; rat polyethylene tube; cited from earlier work
[8] = system: catalase and SOD2; assay: mRNA expression of antioxidant enzymes by quantitative real-time PCR in H2O2-treated auditory cells; assay type: cell-based; settings: pre-treated 1, 10, 25 and 50 μM for 1 hour, 250 μM H2O2 for 24 hours
Protocol: as §1

[9] = system: HEI-OC1 cells; assay: Cytotoxicity of sarpogrelate by WST-1 analysis; assay type: cell-based; settings: 0.1, 1, 10 and 25 μM for 24 hours
Protocol: Auditory cell (HEI-OC1; House-Ear Institute-organ of Corti 1) lines expressing auditory genes were used, and the HEI-OC1 cells were cultured at 33° C. and under 10% CO2 in DMEM medium (Dulbecco's modified Eagle's Medium) containing a high concentration of glutamine, supplemented with 10% fetal bovine serum (FBS) and 25 U/ml of interferon gamma.

SMILES: COc1cccc(CCc2ccccc2OCC(CN(C)C)OC(=O)CCC(=O)O)c1 (stereo not drawn) [sarpogrelate, 4-[2-(dimethylamino)-1-({2-[2-(3-methoxyphenyl)ethyl]phenoxy}methyl)ethoxy]-4-oxobutanoic acid]
- onset of the condition in the peripheral arterial occlusion model [1]: inhibits the onset of the condition
- platelet aggregation by collagen and secondary platelet aggregation by ADP or epinephrine [2]: inhibited
- apoptosis of auditory cells caused by H2O2 [3]: inhibiting apoptosis
- expression of SOD2 [4]: significantly increased
- expression of catalase [4]: significantly increased
- contraction of vascular smooth muscles by serotonin [5]: inhibiting the contraction
- protein expression of SOD2 [6]: increased
- protein expression of catalase [6]: increased
- formation of thrombus in arterial thrombosis models [7]: inhibit the formation of thrombus
- mRNA expression of SOD2 [8]: increased
- mRNA expression of catalase [8]: increased
- cytotoxicity of sarpogrelate [9]: not to cause cytotoxicity
